Assay results published in patent US7173021B2, “Synthesis of temozolomide esters as potent anticancer pro-drugs for topical and transdermal applications in treatments of cancers” (Tianjin North Pharm Sci-Tech Co., Ltd., priority 2004, dated 2007).
In brackets after ≈: the same amount, converted by molar mass. Entries after “also recorded” stand apart in the source; their conditions may differ.

Key:
MV3 (human melanoma) = assay: In vitro tumour cell growth inhibition (MTT), MV3; assay type: cell-based; conditions: Homo sapiens, 96 h
Experimental: (§1) Temozolomide (white powder), temozolomide acid (white powder) and temozolomide-8-carboxylate hexyl (white scale crystal) were made in house. For the estimation of in vitro tumour cell growth inhibition, MV3 (human melanoma), M14 (human melanoma), B16 and B16-BL6 (mouse melanoma), SHG-44, TJ899 and TJ905 (human glioma), MCF-7 (human breast), HCT-8 (human colon), A549 (human non small lung), Bel7402 (human hepatocellulor), and BGC-823 (human stomach) were used. All tumour cells were cultured in RPMI-1640 medium supplemented with 10% fetal bovine serum (FBS) at 37° C. in a humidified 5% CO2 incubator.
(§2) After being harvested from culture flasks, a cell suspension of 1×10^4/ml was made by using 1640 RPMI medium supplemented with 10% fetal bovine serum. 100 μl (contains 1000 tumour cells) of the cell suspension was seeded per well of 96-well flat-bottom Costar culture plates at 37° C. in a humidified 5% CO2 incubator for 24 hrs before introducing drugs. Each tested compounds was made for five different concentrations and 100 μl of the each concentration was introduced into parallel three wells; control wells were added with 100 μl of plain medium alone; fluorouracil (a chemotherapeutic antitumour drug) was used as the positive control. Cells were then incubated for 96 h. Proliferative response and cell death were determined using MTT (3-(4,5-dimethylthiazolyl)-2,5-diphenyl-tetrazolium bromide) assay.
(§3) MTT assay: Following incubation of cells with the tested compounds for 96 h, 100 μl of 0.4 mg/ml MTT in RPMI 1640 was added to each well and the plate was incubated at 37° C. for 4 h. The plate was then centrifuged and followed by removal of medium. 150 μl of DMSO was then added to dissolve formazan crystal. DMSO-added plates were placed on a plate shaker for 5 min and absorbance was measured spectrophotometrically at 540 nm (with reference wavelength at 450 nm) using a Benchmark microtiter plate reader (Bio-Rad 550, Bio-Rad Laboratories, CA, U.S.A.).
(§4) The IC50 was calculated from the curve of the tested compound concentrations against the inhibition rate of the tumour cells. Table 1 summarized the experiment results by using six human cancer cell lines, HCT-8 (colon carcinoma), A549 (non small lung carcinoma), MCF-7 (breast), Bel7402 (hepatocellulor carcinoma), BGC-823 (stomach adenocarcinoma), and MV3 (melanoma). Table 2 summarized the results from the experiment results by using two human melanoma cell lines, MV3 and M14, two mouse melanoma cell lines, B16 and B16-BL6, and three human glioma cell lines, TJ899, SHG-44 and TJ905.

MCF-7 (human breast) = assay: In vitro tumour cell growth inhibition (MTT), MCF-7; assay type: cell-based; conditions: MCF7, Table 1 experiment, 96 h
Experimental: as §1, §2, §3
(§5) The IC50 was calculated from the curve of the tested compound concentrations against the inhibition rate of the tumour cells. […]

[1] = test system: Bel7402 (human hepatocellulor); assay: In vitro tumour cell growth inhibition (MTT), Bel-7402; assay type: cell-based; conditions: Table 1 experiment, 96 h
Experimental: as §1, §2, §3, §5

[2] = test system: A549 (human non small lung); assay: In vitro tumour cell growth inhibition (MTT), A549; assay type: cell-based; conditions: Table 1 experiment, 96 h
Experimental: as §1, §2, §3, §5

HCT-8 (human colon) = assay: In vitro tumour cell growth inhibition (MTT), HCT-8; assay type: cell-based; conditions: Table 1 experiment, 96 h
Experimental: as §1, §2, §3, §5

BGC-823 (human stomach) = assay: In vitro tumour cell growth inhibition (MTT), BGC-823; assay type: cell-based; conditions: Table 1 experiment, 96 h
Experimental: as §1, §2, §3, §5

M14 (human melanoma) = assay: In vitro tumour cell growth inhibition (MTT), M14; assay type: cell-based; conditions: Homo sapiens, Table 2 experiment, 96 h
Experimental: as §1, §2, §3, §4

B16 (mouse melanoma) = assay: In vitro tumour cell growth inhibition (MTT), B16; assay type: cell-based; conditions: Mus musculus, Table 2 experiment, 96 h
Experimental: as §1, §2, §3, §4

B16-BL6 (mouse melanoma) = assay: In vitro tumour cell growth inhibition (MTT), B16-BL6; assay type: cell-based; conditions: Mus musculus, B16-BL6, Table 2 experiment, 96 h
Experimental: as §1, §2, §3, §4

TJ899 (human glioma) = assay: In vitro tumour cell growth inhibition (MTT), TJ899; assay type: cell-based; conditions: Homo sapiens, Table 2 experiment, 96 h
Experimental: as §1, §2, §3, §4

SHG-44 (human glioma) = assay: In vitro tumour cell growth inhibition (MTT), SHG-44; assay type: cell-based; conditions: Homo sapiens, SHG-44, Table 2 experiment, 96 h
Experimental: as §1, §2, §3, §4

TJ905 (human glioma) = assay: In vitro tumour cell growth inhibition (MTT), TJ905; assay type: cell-based; conditions: Homo sapiens, Table 2 experiment, 96 h
Experimental: as §1, §2, §3, §4

TLX5 lymphoma cell line = conditions: Tsang 1990; cited from earlier work
[3] = Solubility in 10% v/v propylene glycol; assay type: physicochemical; conditions: 10% v/v propylene glycol aqueous solution, aqueous with cosolvent or surfactant or cyclodextrin, thermodynamic from solid, ambient conditions, stirred 5 hours, read-out: Solubility, Concentration
Experimental: The potential of temozolomide esters used as topical and transdermal prodrugs is first proven through studies of their solubility. That is a decreased trend of solubility in an aqueous solution with increase of the length of the ester hydrocarbon alkyl chain of the temozolomide esters. It is clear the solubility constantly decreases from the methyl ester to the octyl ester, while temozolomide itself is 3.0 mg/ml similar to that of the methyl ester. […] Similarly to the esters, the solubility of the temozolomide amide products in the aqueous solution is considerably lower than that of temozolomide.
The solubility of temozolomide and the temozolomide esters was determined in 10% v/v propylene glycol by stirring an excess of the solid products at room temperature for 5 hours. The mixtures were then filtered, diluted with sample solvent and analysed using HPLC.

pig liver esterase = assay: Enzymatic metabolizing study with pig liver esterase (1H NMR); assay type: in vitro ADME; conditions: 37° C., pH 7.4 buffer; ester complete at 10 minutes; amide followed up to 8 hours
Experimental: First the present invention establishes the metabolised process of the temozolomide esters by pig liver esterase in vitro. ^1H NMR spectra 1 (FIG. 1) records the degradation profile of the temozolomide methyl ester under incubation condition (Rathbone D L, 1999). […] Finally, at 10 minutes, the intensity of the singlet at 3.58 ppm grows to the grade similar to the original of the two singlets at 3.63 and 3.65 ppm, which while are completely eliminated. […] This discovery establishes the solid foundation for the temozolomide esters to be considered as the potential anticancer pro-drugs.
Enzymatic metabolizing studies of the temozolomide methyl ester was carried out using pig liver esterase enzyme from Sigma [a suspension in 3.2 M ammonium sulphate solution pH 8; 200 unit/mg protein (14 mg protein/ml)]. • A. To a NMR tube 2 mg of the temozolomide methyl ester was added, followed by 0.2 ml of d6-DMSO, 0.5 ml D2O of pH 7.4 sulphate buffer and finally 50 μl of the enzyme solution. Record a ^1H NMR spectrum immediately, then the mixture was incubated at 37° C. and record a ^1H NMR spectrum at each 5 minutes time interval. […] The samples were dissolved in d6-DMSO in an NMR tube, 50 μl of enzyme solution was added and the solution incubated at 37° C.

[4] = In vitro permeation and metabolism, Franz diffusion cell, human skin; assay type: in vitro ADME
Excerpt: (§6) Jacketed Franz-type diffusion cells were used throughout the study and the barrier (12) (skin or silicone membrane) was mounted between the two chambers (14, 16) (2.8–3.4 cm^2 available surface area) with the dermal side in contact with the receiver solution (FIG. 2). The diffusion chambers (10) comprised a barrier of skin or silicone membrane (12) mounted between two chambers (14, 16). A cap (18) formed the donor compartment (14). The second receptor compartment (16) contained a receptor cell (20) with a stirring bar (22), sampling port (24) and cover (26). The stirring bar (22) was stirred by means of a magnet plate (28) having a rotating magnet. The receptor compartment comprised a water jacket (30) having a water inlet (32) and a water outlet (34).
(§7) Three types of materials were used in permeation studies. • 1. Silicone membrane (Silastic Medical Grade, 500-5, Dow Corning 0.005 in thick) was cut into circular sections (2 cm diameter) and washed with double distilled water prior to use. • 2. Full-thickness rat skin was obtained from Male Wistar rats aged 10 to 12 weeks and weighing 250 to 300 g, which were sacrificed by cervical dislocation, the abdomen shaved and the intact skin removed by dissection. Following removal of fat tissue, the skin was cut into circular pieces and used immediately. • 3. Samples of adult human epidermis were purchased from the Stephen Kirby Skin Bank (UK). The samples were from the leg, were stored at −18° C. and used within one week. Experiments
The membrane (as detailed above) was mounted on the diffusion cell (10), on which the surface area available for diffusion of each cell was about 2.8–3.4 cm^2. The cell cap (18) was placed on the membrane (12), and it was sealed with Parafilm® connecting the cell cap, membrane, and receptor cell. […] The concentration of each sample solution was determined by using HPLC. […]
As stated above, after the removal of receptor solution, the receiver compartment was refilled with an identical volume of receptor fluid. […] As a consequence, it was necessary to mathematically correct each successive sample concentrations, in the present invention, which was determined by applying the following equation:
(§8) [formula] where Ct is the actual current concentration of drug in the receptor phase at time t, Cmt is the apparent (i.e. measured) current concentration of drug in the receptor phase, Vs is the sample volume withdrawn for analysis, Vr is the volume of receptor solution, and ΣCm is the summed total of the previous measured concentrations.
(§9) Finally, the amount of drug penetrating the skin per unit area was calculated by dividing the obtained concentrations by the surface area available for diffusion cell and this value was different for each individual cell. […]

[5] = Measured log P, octanol/water; assay type: physicochemical; conditions: octanol/water system; read-out: measured Log P (mLog P)
Experimental: Log P values of temozolomide (1) and the temozolomide esters were calculated using TSAR (Oxford Molecular, Oxford, UK), Molecular Modeling Pro (ChemSW, Fairfield, Calif.) and Chem Office 7.0 (CambridgeSoft, Cambridge, UK) programmes. Calculated Log P values were verified for temozolomide and the temozolomide hexyl ester by measuring the octanol/water coefficient (Table 4).

[6] = In vitro permeation, Franz diffusion cell, silicone membrane; assay type: in vitro ADME; conditions: 37° C., 8 h, FIGS. 3-5
Excerpt: as §6, §7
The membrane (as detailed above) was mounted on the diffusion cell (10), on which the surface area available for diffusion of each cell was about 2.8–3.4 cm^2. The cell cap (18) was placed on the membrane (12), and it was sealed with Parafilm® connecting the cell cap, membrane, and receptor cell. The capacity of each receptor cell was around 25–26 ml, which was filled with receptor solution and was completely in contact with the membrane sheet. During the course of experiment, the solution was continuously stirred by teflon-coated magnetic bar (22) placed in the cell (20). The temperature was maintained at 37° C. by a thermostatic water pump that circulated the water through the jacket (30) surrounding the cell body. The system was allowed to equilibrate under these conditions for half an hour. Finally, the prepared sample solution (2 ml) was added into the donor cap cell, and it was sealed with Parafilm® to minimize the evaporation of donor solution. 1 ml of receptor solution was removed every 30 minutes for 5 hours and then every 60 minutes for a further 3 hours. The volumes withdrawn were always replaced with equal volumes of fresh receptor solution to maintain constant volume. The concentration of each sample solution was determined by using HPLC.
For every sample, six determinations were performed on human and rat skin, and three determinations were carried out through artificial silicone membrane.
As stated above, after the removal of receptor solution, the receiver compartment was refilled with an identical volume of receptor fluid. This causes of the dilution of receptor solution leading to an under determination of the sample concentration. As a consequence, it was necessary to mathematically correct each successive sample concentrations, in the present invention, which was determined by applying the following equation:
as §8, §9

IC50 (MV3 (human melanoma); Table 1 experiment) [mg/L] | IC50 (MV3 (human melanoma); Table 2 experiment (separate)) [mg/L] | IC50 (MCF-7 (human breast)) [mg/L] | IC50 [1] [mg/L] | IC50 [2] [mg/L] | IC50 (HCT-8 (human colon)) [mg/L] | IC50 (BGC-823 (human stomach)) [mg/L] | IC50 (M14 (human melanoma)) [mg/L] | IC50 (B16 (mouse melanoma)) [mg/L] | IC50 (B16-BL6 (mouse melanoma)) [mg/L] | IC50 (TJ899 (human glioma)) [mg/L] | IC50 (SHG-44 (human glioma)) [mg/L] | IC50 (TJ905 (human glioma)) [mg/L] | solubility at 5 h [3] [mg/mL] | Permeation through human skin ([4]; 37° C., FIG. 9) | Metabolism within human skin to temozolomide acid ([4]; human skin) | logP [5] | SMILES | in vitro IC50 compared with temozolomide (TLX5 lymphoma cell line) | Degradation to temozolomide acid by pig liver esterase (pig liver esterase) | Permeation through synthetic silicone membrane [6]
14.6 (≈ 74.9 µM) | 36 (≈ 185 µM) | 14.9 (≈ 76.4 µM) | 17 (≈ 86.9 µM) | > 19.5 | 18.5 (≈ 94.9 µM) | > 19.5 | 99 (≈ 507 µM) | 36.2 (≈ 185 µM) | 43.5 (≈ 223 µM) | > 100 | 7.07 (≈ 36.2 µM) | > 100 | – | – | – | – | Cn1nnc2c(C(=O)O)ncn2c1=O [temozolomide acid, 3,4-dihydro-3-methyl-4-oxoimidazo[5,1-d]-1,2,3,5-tetrazine-8-carboxylic acid] | almost identical to that of temozolomide | – | –
– | – | – | – | – | – | – | – | – | – | – | – | – | 1.8 (≈ 7190 µM) | notably better than temozolomide | resistant to metabolism | – | CCCCNC(=O)c1ncn2c(=O)n(C)nnc12 [Temozolomide n-butyl amide, 3-Methyl-N-(n-butyl)-4-oxoimidazo[5,1-d]-1,2,3,5-tetrazine-8-carboxamide] | – | no the temozolomide acid was observed; also recorded: gradually decomposed into un-identifiable products without the observation of temozolomide acid | –
– | 7.86 (≈ 40.5 µM) | – | – | – | – | – | > 100 | 61.9 (≈ 319 µM) | > 100 | > 100 | 9.04 (≈ 46.6 µM) | > 100 | 3 (≈ 15500 µM) | – | – | -0.66 | Cn1nnc2c(C(N)=O)ncn2c1=O [Temozolomide, 8-Carbamoyl-3-methylimidazo[5,1-d]-1,2,3,5-tetrazine-4(3H)-one] | – | – | can not pass through the synthetic membrane easily; also recorded: lowest permeation
